From patent US20080113908A1, “Use of CRF receptor agonists for the treatment or Prophylaxis of diseases, for example Neurodegenerative diseases” (SmithKline Beecham plc, priority 2000, published 2008) come the findings set out here.

Like-named read-outs stand apart in the source and are kept apart here. Ends that are not written are not given here.

The test system of data set [1] is primary cerebellar granule neurones. The data set is described as follows: Assay 2: effect of CP154,526 on agonist protection against LY294002 neurotoxicity. Format: cell-based, rat. As to conditions: LY 294002 75 μM; for effect of CP 154,526 on neuroprotective effect of CRF receptor agonist (FIGS. 2B-D): urocortin, urotensin 1 or sauvagine 10 nM. As to the method:
Assay 2: This assay measures the effects of CP154,526, a selective CRF receptor-1 antagonist, on the protective effects of a putative CRF receptor agonist against neurotoxicity induced by LY294002 in primary cerebellar granule neurones. The assay is identical to Assay 1 except that after shifting the granule neurone cultures to the medium, the cultures were incubated with CP154,526 at concentrations varying from 3 nM to 1000 nM for 30 minutes prior to simultaneous addition of the putative CRF receptor agonist (10 nM) and LY 294002 (75 μM). 48 hours later neuronal survival was measured as in Assay 1.
The columns from left to right represent: (1) control: cells cultured with CRF (10 nM) and LY 294002 (75 μM); (2 to 7) cells cultured with CRF (10 nM), LY 294002 (75 μM) and CP 154,526 at concentrations of 3 nM, 10 nM, 30 nM, 100 nM, 300 nM and 1000 nM respectively; and (8) cells cultured without agonist (CRF) but with LY 294002 (75 μM).

The test system of data set [2] is hippocampal neurones. The experiment in a line: Amyloid-β peptide (25-35) toxicity, survival by counting viable neurons (FIGS. 8, 9). The format is cell-based. As to conditions: for neuronal death: 10-20 μM. As to the method:
In order to test whether CRF receptor agonists protect neurones from death caused by Aβ, the following experiment was conducted (FIGS. 8 and 9). Hippocampal neurons from embryonic day 18 rat were cultured in serum-free medium (neurobasal/B27) for 9 days. The culture methods are described on page 48 of S. D. Skaper et al., J. Neurochem., 2001, 76, 47-55. Cells were then treated with amyloid-β peptide (fragment 25-35) (Sigma, cat. no. A-4559, sequence Gly-Ser-Asn-Lys-Gly-Ala-Ile-Ile-Gly-Leu-Met) at 10 μM plus the indicated CRF receptor agonist at the indicated concentration, in the same culture medium. […] Cell survival was assessed after 3 days, by fixing the cultures and counting microscopically viable neurons. Values are expressed relative to numbers of surviving neurons in untreated cultures (=100).

The subject of data set [3] is cerebellar granule neurones. Format: cell-based, rat. The following applies: 48 h, MTT, sham-treated = 100%. As to the method: Cerebellar granule neurones were used in the examples to test neuroprotection by CRF receptor agonists. Cerebellar granule neurones (CGNs) undergo apoptosis during the first few weeks of postnatal life, and in culture require mildly depolarising concentrations of KCl (25 mM) for their survival and maturation (S. R: D'Mello et al., Proc. Natl. Acad. Sci. USA 90, 10989-10993, 1993). The growth signal provided by KCl depends upon activation of the phosphatidylinositol 3-kinase (PI 3-kinase) pathway, and pharmacological inhibition of PI 3-kinase in differentiated granule neurones leads to apoptotic death in the CGNs (T. M. Miller et al., J. Biol. Chem., 272, 9847-9853, 1997). Thus, cultured CGNs represent a suitable model to study mechanisms of programmed cell death, and to identify putative neuroprotective signalling pathways.
Assay 1: Cerebellar granule neurones prepared from postnatal day 8 Sprague Dawley rat pups were used for experiments on death induced by inhibition of PI 3-kinase. General culture methods are described in S. D. Skaper et al. in Methods in Neurosciences, Vol. 2 (Conn P. M., ed), pp. 17-33. Academic Press, San Diego, 1990. At 8-9 days in vitro (DIV), granule neurone cultures were shifted to phenol red-free Dulbecco's modified Eagle's medium lacking serum, and containing 0.05% bovine serum albumin and 25 mM KCl. Death was induced by addition of the PI 3-kinase inhibitor LY 294002 (75 μM). CRF or CRF agonist peptides (urotensin 1, urocortin, sauvagine) were added at different concentrations (from 0.3nM to 300 nM or 1000 nM) together with LY 294002. Forty-eight hours later neuronal survival was quantified by a colorimetric reaction MTT. Absolute MTT values obtained were normalised for small differences in interexperiment plating densities by scaling to the mean of sham-treated sister cultures (defined as 100%).
Results are shown in Table 1 below and in graphical form in FIG. 1, which show the percentage mean neuronal survival (and standard deviation), when in the presence of the relevant CRF receptor agonists and LY 294002, as a function of agonist concentration. […] Urotensin 1, urocortin and sauvagine were also neuroprotective albeit with lower potency (<1 μM).

Data set [4] has as its system cerebellar granule neurones. The data set is described as follows: Assay 3: intracellular cyclic AMP enzyme immunoassay. Format: cell-based, rat. The following applies: agonist 0 to 30 nM, 15 min, 0.5 mM IBMX. As to the method:
Assay 3: The production of cAMP by the CRF receptor agonist peptides CRF, urotensin 1, urocortin and sauvagine was measured as follows. This assay can be used analogously for any putative CRF receptor agonists including non-peptide agonists.
Intracellular cyclic AMP was measured with a cAMP 2-site enzyme immunoassay system (trade mark BIOTRAK, commercially available from Amersham Pharmacia Biotech, PO Box 164, Rainham, Essex RM13 8JZ, United Kingdom, Amersham catalogue number RPN225), based upon the use of a sensitive and highly specific capture antibody for cyclic AMP:
Cerebellar granule neurones were seeded in polylysine-coated […] plates, 3.5×10^5 cells per 48-well, in Basal medium Eagle's containing 10% fetal calf serum, 25 mM KCl, and antibiotics. At 8-9 days in vitro, granule neurone cultures were shifted to serum-free plating medium (0.4 ml) with 0.5 mM IBMX (to inhibit the breakdown of cyclic AMP) for 15 min (37° C.). Wells then received 0.1 ml of test peptide (5× final concentration). Generally 1 μM is the preferable final concentration for a putative CRF agonist under test, though different (e.g. lower) concentrations can be used as shown for the peptide agonists in FIG. 3. Incubation was continued for 15 min. Test medium was removed and the plate placed on dry ice, and stored at −140° C. Cyclic AMP analysis was performed the following day.
Cells were then lysed with the reagent provided with the BIOTRAK kit. Intracellular content of cyclic AMP in the lysates was assayed following the manufacturer's instructions. A standard curve was constructed using the cyclic AMP calibration provided, with the quantity of bound cyclic AMP being inversely proportional to the amount of second (chromogenic) antibody bound to the reaction wells. The colour product was read with an ELISA plate reader, and was a function of the amount of cyclic AMP in the unknown sample.

Data set [5] addresses CRF receptor-1 (Type 1 CRF receptor) on primary rat neurones (rat, UniProt P35353). The data set is described as follows: cell-based or functional assay.
The mark [6] stands for this setting: agonist 0.3 nM with LY 294002 75 μM.
Setting [7] is: agonist 1 nM with LY 294002 75 μM.
The mark [8] stands for this setting: agonist 3 nM with LY 294002 75 μM.
[9] abbreviates: agonist 10 nM with LY 294002 75 μM.
The mark [10] stands for this setting: agonist 30 nM with LY 294002 75 μM.
Where [11] appears, read: agonist 100 nM with LY 294002 75 μM.
Where [12] appears, read: agonist 300 nM with LY 294002 75 μM.

As to `CCCCN(CC)c1nc(C)nc2c1c(C)cn2-c1c(C)cc(C)cc1C` [CP 154,526], the “effect of CP 154,526 on neuroprotective effect of CRF receptor agonist (FIGS. 2B-D)” value in data set [1] (CP 154,526 300 nM) is given as “partial reductions in neuroprotection”; in data set [1] (CP 154,526 1000 nM) it was “remove most or all of the neuroprotective effect”. Besides, the “effect of CP 154,526 on neuroprotective effect of CRF (FIG. 2A)” value in data set [1] (CP 154,526 as low as 300 nM, CRF 10 nM) is listed as “remove almost completely the neuroprotective effect of 10 nM CRF”. Also, the “effect of CP-154,526 on CRF's neuroprotection (FIG. 8)” value in data set [2] (CP-154,526 1 μM with CRF (30 nM) and Aβ(25-35) 10 μM, 3 days) was “cancels all of CRF's neuroprotection”.
For `CC[C@H](C)[C@H](NC(=O)[C@@H](NC(=O)[C@H](CC(=O)O)NC(=O)[C@H](CC(C)C)NC(=O)[C@H](CC(C)C)NC(=O)[C@H](CC(C)C)NC(=O)[C@H](CCCNC(=N)N)NC(=O)[C@H](CC(N)=O)NC(=O)[C@H](CC(N)=O)NC(=O)[C@H](C)NC(=O)[C@H](C)NC(=O)[C@H](CCC(N)=O)NC(=O)[C@H](CCC(N)=O)NC(=O)[C@H](CCCCN)NC(=O)[C@H](CCC(=O)O)NC(=O)[C@H](CCCCN)NC(=O)[C@H](CCC(=O)O)NC(=O)[C@H](CCC(N)=O)NC(=O)[C@H](CCCCN)NC(=O)[C@H](CCC(=O)O)NC(=O)[C@@H](NC(=O)[C@H](CCC(=O)O)NC(=O)[C@@H](NC(=O)[C@H](CCSC)NC(=O)[C@H](CCCCN)NC(=O)[C@H](CCCNC(=N)N)NC(=O)[C@H](CC(C)C)NC(=O)[C@H](CC(C)C)NC(=O)[C@H](CCC(=O)O)NC(=O)[C@H](CC(C)C)NC(=O)[C@H](CO)NC(=O)[C@H](CC(C)C)NC(=O)[C@H](CC(=O)O)NC(=O)[C@@H](NC(=O)[C@H](CO)NC(=O)[C@@H](NC(=O)[C@@H]1CCCN1C(=O)[C@@H]1CCCN1C(=O)CNC(=O)[C@@H]1CCC(=O)N1)[C@@H](C)CC)[C@@H](C)CC)[C@@H](C)CC)[C@@H](C)CC)[C@@H](C)O)C(N)=O` [Sauvagine], the Mean survival % in data set [3] (setting [6]) amounted to 49.33%; in data set [3] (setting [7]), 66.5%; in data set [3] (setting [8]), 76.33%; in data set [3] (setting [9]), 80.67%; in data set [3] (setting [10]) it was 78.67%; in data set [3] (setting [11]), 77.33%. In data set [3] (setting [12]), this molecule came in with a Mean survival % of 78.33%. Moreover, in data set [4], the “cAMP synthesis induced by agonist (FIG. 3)” value was “cAMP production increased with agonist concentration”.
Consider “DDPPLSIDLTFHLLRTLLELARTQSQRERAEQNRIIFDSV [Urocortin, Urocortin (rat, Sigma Cat. no. U-6631), CRF receptor agonist peptide]”, for which the Mean survival % in data set [3] (setting [6]) is listed as 50.67%; in data set [3] (setting [7]), 61.33%; in data set [3] (setting [8]), 69.33%; in data set [3] (setting [9]) it was 77.33%; in data set [3] (setting [10]) it was 80.67%; in data set [3] (setting [11]) it was 75%. In addition, the Mean survival % in data set [3] (setting [12]) is reported as 84%. For the same molecule, the “cAMP synthesis induced by agonist (FIG. 3)” value in data set [4] was “cAMP production increased with agonist concentration”.
On to “GSNKGAIIGLM [Aβ, Gly-Ser-Asn-Lys-Gly-Ala-Ile-Ile-Gly-Leu-Met]”, for which the figures for the neuronal death entry in data set [2] (after 2-3 days) and in data set [2] (after 1 day of exposure) were “cell death was visible” and “no visible neuronal death”, respectively.
As for “MLGIIAGKNSG [reverse β-amyloid sequence (35-25)]”, the neurotoxicity of peptide entry in data set [2] (20 μM, results not shown) is given as “not to be neurotoxic”.
For the molecule NDDPPISIDLTFHLLRNMIEMARIENEREQAGLNRKYLDEV-NH2 [Urotensin 1 (teleost fish, Sigma cat. no. U-7253)], the “potency of neuroprotection of cerebellar granule neurones against LY 294002 (Assay 1)” value in data set [5] was below 1000 nM.
On to SQEPPISLDLTFHLLREVLEMTKADQLAQQAHNNRKLLDIA-NH2 [Rat CRF (corticotropin-releasing factor), Sigma catalogue no. C-3042], for which the “EC50 of neuroprotection of cerebellar granule neurones against LY 294002 (Assay 1)” value in data set [5] is around 10 nM.
For the molecule DDPPLSIDLTFHLLRTLLELARTQSQRERAEQNRIIFDSV-NH2 [Urocortin (rat, Sigma Cat. no. U-6631)], the “potency of neuroprotection of cerebellar granule neurones against LY 294002 (Assay 1)” value in data set [5] is below 1000 nM.
